IC50 data for eleven compounds are collected here from patent US12202835B2, “Substituted aromatic ring-linked dioxinoquinazolines and dioxinoquinolines as kinase inhibitors” (BEIJING SCITECH-MQ PHARMACEUTICALS LIMITED, priority 2018, dated 2025).

The subject of test [1] is Ba/F3 LMNA-NTRK1 cells. The experiment in a line: Assay for inhibiting the proliferation of Ba/F3 LMNA-NTRK1 cells (CCK-8). Format: cell-based. Particulars: Mus musculus, BaF3. The essentials: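 Viability was read as absorbance at 450 nm following 1–2 h CCK-8 incubation at 37 °C, relative to control and blank wells.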
The target of test [2] is MER kinase (Homo sapiens (Human), UniProt Q12866). The experiment in a line: Assay of small molecular compounds for inhibiting the activity of MER kinase (LANCE TR-FRET). Format: biochemical. In short, it runs like this: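 LANCE TR-FRET readout of ULight-poly GT phosphorylation by MER kinase; compound final range 0.042-2500 nM, 3-fold steps, 5 min enzyme preincubation. Reaction 60 min at room temperature in the dark with substrate/ATP (4× at 200 nM/20 μM), 1% DMSO, then stopped and developed 60 min; IC50 by curve fit.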

In test [3] the target is TRKA kinase (Homo sapiens (Human), UniProt P04629). Briefly: Assay of small molecular compounds for inhibiting the activity of TRKA kinase (LANCE TR-FRET). Format: biochemical. The essentials: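 TRKA (supplied as 2 nM 2× solution) was pre-reacted with compounds for 5 min at room temperature before a 4× ULight-TK peptide/ATP mix (400 nM/40 μM) started the 60-min dark reaction at 1% DMSO. After stop and 60-min detection, TR-FRET was read.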
A general note: Time-resolved FRET reads energy transfer from a long-lived donor to a nearby acceptor.

Test [4] deals with Ba/F3-AXL cells. The experiment in a line: Assay for inhibiting the proliferation of Ba/F3-AXL cells (CCK-8). Format: cell-based. Particulars: 72 hours of incubation, medium with 100 ng/mL hGas6, CCK-8. How it is done: The values were then imported into Graphpad Prism 5 software for curve fitting, and IC50 was calculated.

By IC50 is commonly meant the concentration that gives 50% inhibition.

Chain of TRKA kinase (P04629 33-796): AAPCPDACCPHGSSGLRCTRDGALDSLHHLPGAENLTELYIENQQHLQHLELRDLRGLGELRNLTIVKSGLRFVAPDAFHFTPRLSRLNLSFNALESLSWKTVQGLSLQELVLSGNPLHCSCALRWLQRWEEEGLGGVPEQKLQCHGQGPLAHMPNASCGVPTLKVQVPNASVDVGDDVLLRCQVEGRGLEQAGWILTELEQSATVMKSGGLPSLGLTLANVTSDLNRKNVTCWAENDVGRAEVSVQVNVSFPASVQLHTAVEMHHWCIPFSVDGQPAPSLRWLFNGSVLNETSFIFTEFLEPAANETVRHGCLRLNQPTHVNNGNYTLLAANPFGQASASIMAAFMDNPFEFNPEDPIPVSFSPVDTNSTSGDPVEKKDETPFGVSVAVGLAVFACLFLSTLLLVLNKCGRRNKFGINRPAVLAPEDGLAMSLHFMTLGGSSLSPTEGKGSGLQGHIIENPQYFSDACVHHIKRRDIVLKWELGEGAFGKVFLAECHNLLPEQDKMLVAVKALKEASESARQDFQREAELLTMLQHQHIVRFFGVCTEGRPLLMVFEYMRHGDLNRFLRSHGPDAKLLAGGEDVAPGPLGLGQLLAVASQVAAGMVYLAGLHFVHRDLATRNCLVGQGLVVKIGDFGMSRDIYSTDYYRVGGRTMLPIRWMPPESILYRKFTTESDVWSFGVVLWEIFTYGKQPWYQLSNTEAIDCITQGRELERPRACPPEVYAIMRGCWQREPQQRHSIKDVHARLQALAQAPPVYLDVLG
Chain of MER kinase (Q12866 21-999): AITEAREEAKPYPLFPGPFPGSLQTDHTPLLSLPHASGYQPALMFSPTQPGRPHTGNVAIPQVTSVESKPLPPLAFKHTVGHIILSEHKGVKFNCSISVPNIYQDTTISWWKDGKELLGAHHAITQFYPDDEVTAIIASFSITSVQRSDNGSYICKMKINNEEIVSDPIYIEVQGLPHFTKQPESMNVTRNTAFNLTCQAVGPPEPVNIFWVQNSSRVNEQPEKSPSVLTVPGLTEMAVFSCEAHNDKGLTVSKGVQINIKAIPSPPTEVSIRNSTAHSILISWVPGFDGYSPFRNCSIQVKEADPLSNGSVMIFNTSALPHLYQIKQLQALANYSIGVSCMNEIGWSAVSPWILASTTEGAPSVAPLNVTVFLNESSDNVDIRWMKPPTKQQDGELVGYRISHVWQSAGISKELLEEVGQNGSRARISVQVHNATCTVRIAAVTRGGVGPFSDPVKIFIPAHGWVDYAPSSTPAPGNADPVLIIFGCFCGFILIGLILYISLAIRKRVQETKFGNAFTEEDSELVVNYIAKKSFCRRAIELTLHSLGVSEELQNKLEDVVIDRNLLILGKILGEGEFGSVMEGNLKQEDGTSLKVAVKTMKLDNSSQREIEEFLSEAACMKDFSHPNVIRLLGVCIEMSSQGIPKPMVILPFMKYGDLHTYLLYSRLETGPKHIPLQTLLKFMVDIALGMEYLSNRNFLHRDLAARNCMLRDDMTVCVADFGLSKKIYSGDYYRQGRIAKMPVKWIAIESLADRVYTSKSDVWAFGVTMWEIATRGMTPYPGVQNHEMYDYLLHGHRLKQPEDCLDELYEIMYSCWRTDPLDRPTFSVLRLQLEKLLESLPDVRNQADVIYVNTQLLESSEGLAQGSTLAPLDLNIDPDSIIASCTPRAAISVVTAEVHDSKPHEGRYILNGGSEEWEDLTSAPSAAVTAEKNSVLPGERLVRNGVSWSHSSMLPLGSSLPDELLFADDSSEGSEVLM

On to `Cn1cc(C(=O)Nc2ccc(Oc3ccnc4cc(OCCCN5CCOCC5)c5c(c34)OCCO5)c(F)c2)c(=O)n(-c2ccc(F)cc2)c1=O` [Example 15, N-(3-fluoro-4-((5-(3-morpholinopropoxy)-2,3-dihydro-[1,4]dioxino[2,3-f]quinolin-10-yl)oxy)phenyl)-3-(4-fluorophenyl)-1-methyl-2,4-dioxo-1,2,3,4-tetrahydropyrimidine-5-carboxamide], for which the IC50 in test [1] is below 50 nM; in test [2] it was at most 50 nM; in test [3] it was below 50 nM; in test [4], below 50 nM.

Consider `COc1cc2nccc(Oc3cc(Cl)c(NC(=O)c4cn(C)c(=O)n(-c5ccc(F)cc5)c4=O)cc3F)c2c2c1OCCO2` [Example 116, N-(2-chloro-5-fluoro-4-((5-methoxy-2,3-dihydro-[1,4]dioxino[2,3-f]quinolin-10-yl)oxy)phenyl)-3-(4-fluorophenyl)-1-methyl-2,4-dioxo-1,2,3,4-tetrahydropyrimidine-5-carboxamide], for which the IC50 in test [1] is below 50 nM; in test [2], at most 50 nM; in test [3], below 50 nM; in test [4], below 50 nM.

For the compound `COCCOc1cc2nccc(Oc3ccc(NC(=O)c4cccn(-c5ccc(F)cc5)c4=O)cc3F)c2c2c1OCCO2` [Example 34, N-(3-fluoro-4-((5-(2-methoxyethoxy)-2,3-dihydro-[1,4]dioxino[2,3-f]quinolin-10-yl)oxy)phenyl)-1-(4-fluorophenyl)-2-oxo-1,2-dihydropyridine-3-carboxamide], the IC50 in test [1] was below 50 nM; in test [2] it was at most 50 nM; in test [3] it was below 50 nM; in test [4] it was below 50 nM.

On to `CCOc1ccn(-c2ccc(C)cc2)c(=O)c1C(=O)Nc1ccc(Oc2ccnc3cc(OC)c4c(c23)OCCO4)c(F)c1` [Example 112, N-(3-fluoro-4-((5-methoxy-2,3-dihydro-[1,4]dioxino[2,3-f]quinolin-10-yl)oxy)phenyl)-2-oxo-4-ethoxy-1-(4-methylphenyl)-1,2-dihydropyridin-3-carboxamide], for which the IC50 in test [1] is below 50 nM; in test [2] it was at most 50 nM; in test [3] it was below 50 nM; in test [4], below 50 nM.

Regarding `CCOc1ccn(-c2ccc(F)cc2)c(=O)c1C(=O)Nc1ccc(Oc2ccnc3cc(OC)c4c(c23)OCCO4)cc1Cl` [Example 126, N-(2-chloro-4-((5-methoxy-2,3-dihydro-[1,4]dioxino[2,3-f]quinolin-10-yl)oxy)phenyl)-1-(4-fluorophenyl)-4-ethoxy-2-oxo-1,2-dihydropyridine-3-carboxamide], the concentration for half-maximal inhibition (IC50) was below 50 nM in test [1], at most 50 nM in test [2], below 50 nM in test [3] and below 50 nM in test [4].

For `COCCN(C)CCCOc1cc2nccc(Oc3ccc(NC(=O)c4cn(C(C)C)c(=O)n(-c5ccc(F)cc5)c4=O)cc3F)c2c2c1OCCO2` [Example 95, N-(3-fluoro-4-((5-(3-((2-methoxyethyl)(methyl)amino)propoxy)-2,3-dihydro-[1,4]dioxino[2,3-f]quinolin-10-yl)oxy)phenyl)-3-(4-fluorophenyl)-1-isopropyl-2,4-dioxo-1,2,3,4-tetrahydropyrimidine-5-carboxamide], the IC50 in test [1] is 50 to 200 nM; in test [2], at most 50 nM; in test [3], below 50 nM; in test [4], below 50 nM.

Consider `CC(C)n1cc(C(=O)Nc2ccc(Oc3ccnc4cc(OCCCN5CCCCC5)c5c(c34)OCCO5)c(F)c2)c(=O)n(-c2ccc(F)cc2)c1=O` [Example 40, N-(3-fluoro-4-((5-(3-(piperidin-1-yl)propoxy)-2,3-dihydro-[1,4]dioxino[2,3-f]quinolin-10-yl)oxy)phenyl)-3-(4-fluorophenyl)-1-isopropyl-2,4-dioxo-1,2,3,4-tetrahydropyrimidine-5-carboxamide], for which the IC50 in test [1] was below 50 nM; in test [2] it was at most 50 nM; in test [3], below 50 nM; in test [4] it was below 50 nM.

As to `COc1cc2nccc(Oc3ccc(NC(=O)c4cccn(-c5ccc(F)cc5)c4=O)cc3F)c2c2c1OCCO2` [Example 17, N-(3-fluoro-4-((5-methoxy-2,3-dihydro-[1,4]dioxino[2,3-f]quinolin-10-yl)oxy)phenyl)-1-(4-fluorophenyl)-2-oxo-1,2-dihydropyridine-3-carboxamide], the IC50 is below 50 nM in test [1], at most 50 nM in test [2], below 50 nM in test [3] and below 50 nM in test [4].

Regarding `CCOc1ccn(-c2ccc(F)cc2)c(=O)c1C(=O)Nc1ccc(Oc2ccnc3cc(OCCCN4CCCCC4)c4c(c23)OCCO4)c(F)c1` [Example 33, N-(3-fluoro-4-((5-(3-(piperidin-1-yl)propoxy)-2,3-dihydro-[1,4]dioxino[2,3-f]quinolin-10-yl)oxy)phenyl)-1-(4-fluorophenyl)-4-ethoxy-2-oxo-1,2-dihydropyridine-3-carboxamide], the IC50 in test [1] is below 50 nM; in test [2], at most 50 nM; in test [3], below 50 nM; in test [4], below 50 nM.

Turning to `CCOc1ccn(-c2ccc(F)cc2)c(=O)c1C(=O)Nc1ccc(Oc2ccnc3cc(OCCOC)c4c(c23)OCCO4)c(F)c1` [Example 36, N-(3-fluoro-4-((5-(2-methoxyethoxy)-2,3-dihydro-[1,4]dioxino[2,3-f]quinolin-10-yl)oxy)phenyl)-1-(4-fluorophenyl)-4-ethoxy-2-oxo-1,2-dihydropyridine-3-carboxamide], the half-maximal inhibitory concentration (IC50) in test [1] was below 50 nM; in test [2] it was at most 50 nM; in test [3], below 50 nM; in test [4], below 50 nM.

Take `CCOc1ccn(-c2ccc(F)cc2)c(=O)c1C(=O)Nc1ccc(Oc2ccnc3cc(OC)c4c(c23)OCCO4)c(F)c1` [Example 19, N-(3-fluoro-4-((5-methoxy-2,3-dihydro-[1,4]dioxino[2,3-f]quinolin-10-yl)oxy)phenyl)-1-(4-fluorophenyl)-4-ethoxy-2-oxo-1,2-dihydropyridine-3-carboxamide]: the IC50 in test [1] was below 50 nM; in test [2] it was at most 50 nM; in test [3], below 50 nM; in test [4], below 50 nM.
